{"source": "BindingDB's records for patent US20250026750", "about": "(Chia Tai Tianqing Pharmaceutical Group, 2025)", "target": "Serine/threonine-protein kinase ATR (Homo sapiens, UniProt Q13535)", "sequence (Q13535 whole entry)": "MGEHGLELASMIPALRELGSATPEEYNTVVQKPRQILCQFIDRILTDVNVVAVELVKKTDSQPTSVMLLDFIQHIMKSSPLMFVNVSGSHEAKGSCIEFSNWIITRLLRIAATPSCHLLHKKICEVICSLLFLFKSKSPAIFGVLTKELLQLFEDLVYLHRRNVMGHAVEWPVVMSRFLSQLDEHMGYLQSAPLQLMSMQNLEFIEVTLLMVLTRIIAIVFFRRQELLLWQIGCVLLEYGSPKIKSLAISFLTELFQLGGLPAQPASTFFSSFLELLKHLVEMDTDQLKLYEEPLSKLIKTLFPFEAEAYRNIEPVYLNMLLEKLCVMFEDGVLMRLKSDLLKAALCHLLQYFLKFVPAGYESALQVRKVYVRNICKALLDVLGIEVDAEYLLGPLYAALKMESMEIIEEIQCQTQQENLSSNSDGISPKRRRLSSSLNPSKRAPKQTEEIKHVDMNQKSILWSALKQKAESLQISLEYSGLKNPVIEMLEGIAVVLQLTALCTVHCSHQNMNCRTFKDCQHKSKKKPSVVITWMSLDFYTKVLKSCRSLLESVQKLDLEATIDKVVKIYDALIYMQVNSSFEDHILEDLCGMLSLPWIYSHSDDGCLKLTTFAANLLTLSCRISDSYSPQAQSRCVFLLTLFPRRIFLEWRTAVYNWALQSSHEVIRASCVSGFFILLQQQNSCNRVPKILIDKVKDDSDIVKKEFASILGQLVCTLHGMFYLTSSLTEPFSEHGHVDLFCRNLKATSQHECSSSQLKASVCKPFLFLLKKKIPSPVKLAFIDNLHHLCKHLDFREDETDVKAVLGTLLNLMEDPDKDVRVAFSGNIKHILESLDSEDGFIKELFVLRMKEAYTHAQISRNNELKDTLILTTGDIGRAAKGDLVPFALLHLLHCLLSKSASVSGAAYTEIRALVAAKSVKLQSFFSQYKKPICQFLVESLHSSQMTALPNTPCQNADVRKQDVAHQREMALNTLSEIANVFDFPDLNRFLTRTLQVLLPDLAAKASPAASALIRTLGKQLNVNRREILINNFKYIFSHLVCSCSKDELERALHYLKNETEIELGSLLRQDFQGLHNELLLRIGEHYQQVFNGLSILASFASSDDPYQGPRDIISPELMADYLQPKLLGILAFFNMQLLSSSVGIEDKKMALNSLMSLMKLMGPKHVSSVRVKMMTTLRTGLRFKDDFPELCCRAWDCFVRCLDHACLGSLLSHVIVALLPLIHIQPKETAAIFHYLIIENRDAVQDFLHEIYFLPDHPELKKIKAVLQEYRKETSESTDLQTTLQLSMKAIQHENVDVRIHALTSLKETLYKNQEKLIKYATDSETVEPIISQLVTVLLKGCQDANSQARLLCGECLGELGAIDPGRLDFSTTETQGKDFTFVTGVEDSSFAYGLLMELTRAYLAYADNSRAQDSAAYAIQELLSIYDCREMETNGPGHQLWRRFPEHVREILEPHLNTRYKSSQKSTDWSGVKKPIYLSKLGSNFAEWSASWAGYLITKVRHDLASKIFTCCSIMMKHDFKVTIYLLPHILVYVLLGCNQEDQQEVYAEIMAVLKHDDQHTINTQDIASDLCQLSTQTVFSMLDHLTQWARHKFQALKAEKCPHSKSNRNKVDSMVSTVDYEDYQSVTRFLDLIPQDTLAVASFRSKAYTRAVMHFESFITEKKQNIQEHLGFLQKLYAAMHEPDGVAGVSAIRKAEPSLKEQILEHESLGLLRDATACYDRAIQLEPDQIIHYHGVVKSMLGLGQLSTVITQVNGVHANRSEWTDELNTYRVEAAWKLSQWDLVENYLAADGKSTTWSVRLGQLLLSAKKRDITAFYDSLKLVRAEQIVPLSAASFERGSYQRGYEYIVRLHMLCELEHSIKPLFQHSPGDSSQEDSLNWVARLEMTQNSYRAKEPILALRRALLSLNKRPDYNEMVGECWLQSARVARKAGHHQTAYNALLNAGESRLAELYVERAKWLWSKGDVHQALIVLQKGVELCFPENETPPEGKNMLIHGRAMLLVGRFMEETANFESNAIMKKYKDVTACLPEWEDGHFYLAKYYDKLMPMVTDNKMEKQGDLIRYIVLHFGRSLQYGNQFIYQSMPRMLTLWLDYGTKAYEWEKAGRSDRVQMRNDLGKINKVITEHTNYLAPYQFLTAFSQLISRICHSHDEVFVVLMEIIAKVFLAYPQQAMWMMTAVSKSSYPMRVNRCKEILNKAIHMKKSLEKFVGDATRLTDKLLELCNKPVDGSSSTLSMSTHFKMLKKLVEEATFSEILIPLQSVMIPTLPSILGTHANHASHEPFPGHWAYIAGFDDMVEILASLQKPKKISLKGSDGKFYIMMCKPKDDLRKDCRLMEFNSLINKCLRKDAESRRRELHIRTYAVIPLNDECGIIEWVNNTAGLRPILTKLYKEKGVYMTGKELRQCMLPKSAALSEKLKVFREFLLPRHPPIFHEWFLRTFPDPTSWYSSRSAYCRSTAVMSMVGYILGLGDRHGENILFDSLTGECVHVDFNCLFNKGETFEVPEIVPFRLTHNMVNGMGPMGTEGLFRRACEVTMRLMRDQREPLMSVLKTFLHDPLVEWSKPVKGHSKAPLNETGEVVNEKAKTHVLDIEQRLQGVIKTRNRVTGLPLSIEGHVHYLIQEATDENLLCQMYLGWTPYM", "experiment": "In Vitro Inhibitory Activity Against ATR Kinase", "description": "A 50 ng/μL ATR stock solution was diluted with a kinase buffer (50 mM HEPES, 10 mM MgCl2, 2 mM DTT, 1 mM EGTA, 0.01% Tween 20), and 6 μL of 1.67×, 0.0835 ng/μL working solution was added to each well (final concentration: 0.05 ng/μL). Different compounds dissolved in DMSO were added to wells using a nanoliter pipettor, such that the final concentrations of the compounds were 1000 nM-0.24 nM and the concentrations in positive wells were 100 nM-0.024 nM (4-fold gradient, 7 concentrations in total). Meanwhile, a blank control well (containing no enzyme) and a negative control well (containing enzyme, with the vehicle DMSO added) were set. After the enzyme had reacted with the compound or vehicle for 30 min, a 5×, 50 μM ATP (final concentration: 10 μM) prepared with the kinase buffer and a 5×, 0.5 μM substrate (final concentration: 0.1 μM, U Light-poly GT) were 1:1 mixed, and the mixture was added to wells at 4 μL/well. After the plate was sealed with a sealing film and the plate was incubated at room temperature for 2 h, 5 μL of 4×, 40 mM EDTA (final concentration: 10 mM) was added to each well. After 5 min of incubation at room temperature, 5 μL of a 4×, 8 nM assay reagent (final concentration: 2 nM, Ep-anti-phospho-tyrosine antibody) was added to each well. The plate was incubated at room temperature for 1 h. Plate reading was performed on a PE instrument (excitation: 320 or 340 nm; emission: 665 nm), and four-parameter fitting and IC50 calculations were performed."}
{"smiles": "C[C@@H]1COCCN1c1cc(N=S(C)(C)=O)c2cnn(-c3ccn[nH]3)c2n1", "note": "[US20250026750, Compound 1]", "values": [{"measurement": "IC50", "result": "< 50", "unit": "nM"}]}
{"smiles": "C[C@@H]1COCCN1c1cc(N=S2(=O)CCC2)c2cnn(-c3ccn[nH]3)c2n1", "note": "[US20250026750, Compound 3]", "values": [{"measurement": "IC50", "result": "< 50", "unit": "nM"}]}
{"smiles": "C[C@@H]1COCCN1c1cc(N=S2(=O)CCCC2)c2cnn(-c3ccn[nH]3)c2n1", "note": "[US20250026750, Compound 4]", "values": [{"measurement": "IC50", "result": "< 50", "unit": "nM"}]}
{"smiles": "C[C@@H]1COCCN1c1cc(N=S2(=O)CCOCC2)c2cnn(-c3ccn[nH]3)c2n1", "note": "[US20250026750, Compound 6]", "values": [{"measurement": "IC50", "result": "< 50", "unit": "nM"}]}
{"smiles": "C[C@@H]1COCCN1c1cc(N=S(C)(=O)C(C)(C)C)c2cnn(-c3ccn[nH]3)c2n1", "note": "(some centres undefined) [US20250026750, Compound 17]", "values": [{"measurement": "IC50", "result": "< 50", "unit": "nM"}]}
{"smiles": "Cc1nn(-c2ccn[nH]2)c2nc(N3CCOC[C@H]3C)cc(N=S(C)(C)=O)c12", "note": "[US20250026750, Compound 20]", "values": [{"measurement": "IC50", "result": "< 50", "unit": "nM"}]}
{"smiles": "C[C@@H]1COCCN1c1cc(N=S(C)(C)=O)c2c(C(F)(F)F)nn(-c3ccn[nH]3)c2n1", "note": "[US20250026750, Compound 23]", "values": [{"measurement": "IC50", "result": "< 50", "unit": "nM"}]}
{"smiles": "C[C@@H]1COCCN1c1cc(N=S(C)(C)=O)c2c(CCC(F)(F)F)nn(-c3ccn[nH]3)c2n1", "note": "[US20250026750, Compound 24]", "values": [{"measurement": "IC50", "result": "< 50", "unit": "nM"}]}
{"smiles": "C[C@@H]1COCCN1c1cc(N=S(C)(C)=O)c2c(C(C)(C)C)nn(-c3cc[nH]n3)c2n1", "note": "[US20250026750, Compound 25]", "values": [{"measurement": "IC50", "result": "< 50", "unit": "nM"}]}
